Test results from patent publication US20020016346A1, “Method for enhancing outflow of aqueous humor in treatment of glaucoma” (The Regents University of California, a California …, priority 1994, published 2002).
Read-outs that look alike come from different tables or passages of the source.

Key:
[1] = biological target: T1, Na—K—Cl cotransport (Bos taurus, UniProt F1MS08); assay: K influx (86Rb) in bovine TM cell monolayers; format: cell-based
T1 sequence (F1MS08 1-1204): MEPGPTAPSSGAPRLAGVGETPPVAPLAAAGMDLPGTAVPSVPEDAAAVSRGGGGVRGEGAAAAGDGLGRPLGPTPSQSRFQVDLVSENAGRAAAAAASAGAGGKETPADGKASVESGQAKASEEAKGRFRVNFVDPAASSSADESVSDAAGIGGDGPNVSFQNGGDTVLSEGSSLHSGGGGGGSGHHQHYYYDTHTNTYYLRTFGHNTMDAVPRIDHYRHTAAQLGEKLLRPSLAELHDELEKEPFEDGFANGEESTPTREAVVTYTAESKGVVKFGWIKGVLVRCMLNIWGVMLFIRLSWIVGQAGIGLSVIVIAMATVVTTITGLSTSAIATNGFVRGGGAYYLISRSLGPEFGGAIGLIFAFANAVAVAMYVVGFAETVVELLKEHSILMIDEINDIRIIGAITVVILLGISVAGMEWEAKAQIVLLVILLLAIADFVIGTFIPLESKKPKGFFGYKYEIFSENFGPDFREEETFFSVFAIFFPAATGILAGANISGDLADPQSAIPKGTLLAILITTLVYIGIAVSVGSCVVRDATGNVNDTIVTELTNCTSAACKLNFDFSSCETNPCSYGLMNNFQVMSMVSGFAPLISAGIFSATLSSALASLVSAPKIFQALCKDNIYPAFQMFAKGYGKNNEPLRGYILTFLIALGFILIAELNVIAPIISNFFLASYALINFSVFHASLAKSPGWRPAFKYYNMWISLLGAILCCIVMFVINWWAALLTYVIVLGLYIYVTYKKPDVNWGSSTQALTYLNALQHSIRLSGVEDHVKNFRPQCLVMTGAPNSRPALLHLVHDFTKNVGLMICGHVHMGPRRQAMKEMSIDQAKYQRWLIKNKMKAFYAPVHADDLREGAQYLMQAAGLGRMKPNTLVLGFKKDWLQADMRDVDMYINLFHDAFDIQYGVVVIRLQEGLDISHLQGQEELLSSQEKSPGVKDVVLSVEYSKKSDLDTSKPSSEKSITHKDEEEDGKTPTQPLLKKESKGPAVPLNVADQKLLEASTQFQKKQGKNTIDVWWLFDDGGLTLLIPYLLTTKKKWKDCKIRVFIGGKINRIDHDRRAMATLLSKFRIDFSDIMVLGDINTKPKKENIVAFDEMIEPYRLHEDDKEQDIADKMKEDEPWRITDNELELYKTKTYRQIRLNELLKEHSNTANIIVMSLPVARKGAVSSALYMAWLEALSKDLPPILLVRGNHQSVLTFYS
Description: Details of this method have been published previously (O'Donnell, M. E., supra, 1989). Briefly, bovine or human TM cell monolayers on 24 well plates were equilibrated for 10 minutes at 37° C. in a Hepes-buffered minimal essential medium (MEM) containing (in mM): 144 Na, 147 Cl, 5.8 K, 1.2 Ca, 4.2 HCO3, 0.4 H2PO4, […], 0.4 SO4, 5.6 glucose and 20 Hepes. […] The assay medium also contained ^86Rb (1 μCi/ml) (Dupont New England Nuclear, Boston, Mass.). The assay was terminated by rinsing the wells with ice-cold isotonic MgCl2, then extracting the contents with 0.2% sodium dodecyl sulfate (SDS), and determining the amount of radioactive contents by liquid scintillation. Osmolarities of all preincubation and assay media were verified by osmometry (Model 3W2, Advanced Instruments, Norwood, Mass.).
The effects of hormones, neurotransmitters and second messengers on Bumetanide-sensitive K influx of bovine trabecular meshwork cells were assessed using the procedures of Example 1. […] The control is the Hepes-buffered medium containing Na, K, Cl, CA and other ions as described in Example 1B. […] The data represent the mean values±SEM of quadruplicate determinations from two experiments.

[2] = system: TM cell monolayers; assay: Flux of 14C-sucrose across confluent TM cell monolayers on filters; format: cell-based; details: 15 minute assay period
Description: To investigate the possibility that alteration of TM intracellular volume results in modulation of trabecular meshwork barrier permeability, we evaluated the flux of ^14C-sucrose across confluent TM cell monolayers grown on permeable filters. Cells were grown to confluence on collagen-coated dual level tissue culture filter inserts placed in covered multiwell cluster plates, as shown schematically in […], wherein lower chamber 2 is formed by suspension of membrane 4 with cells attached into holder 6, which is covered by cover 8. Upper chamber 10 is formed by the space within the holder above the membrane. Growth media (EMEM) volumes of 0.5 and 1.5 ml were used for upper and lower chambers, respectively, as previously described (Kajimura, et al., FASEB J, 8:A1045, 1994) for evaluation of endothelial cell monolayers and for evaluation of water permeability of TM cell monolayers (Perkins, et al., Invest. Ophthalmol. Vis. Sci., 29:1836-1846, 1988). One insert was placed in each of 12 wells in a cluster plate. Permeability was assessed as the flux of ^14C-sucrose across the TM cell monolayers. […] Sucrose content of the samples was determined by […] methods. The amount of solute was calculated from the radioactivity present in the sample and the specific activity (cpm/μmol) of the ^14C-sucrose.

[3] = system: Na+—K+—2Cl− cotransporter
Description: Thus, studies were conducted to determine the magnitude of net K uptake mediated by the TM cell Na^+—K^+—2Cl^− cotransporter. For determination of the net potassium uptake, the potassium contents of TM cells were evaluated by atomic absorption spectrophotometry, as described previously by O'Donnell, M. E. (supra, 1993). Briefly, cells were preincubated in 10 μM bumetanide for 5 minutes, and assayed as described above, with the exception that no ^86Rb was present during the assay. Cell ionic contents were extracted with 5% trichloroacetic acid following removal of extracellular potassium by washing the monolayers with ice-cold 0.1 M MgCl2.

[4] = system: bovine TM cells; assay: TM cell volume by electronic cell sizing (Coulter Counter); format: cell-based
Description: By the second method, TM cells were trypsinized briefly in Ca-free medium, then rinsed with medium containing trypsin inhibitor and suspended in Hepes MEM. Mean cell volumes were then analyzed by electronic cell sizing on a Coulter Counter™ […] (Model ZM), with channelizer (C256), using at least 50,000 cells per data point and an orifice diameter of 140 μm. Aliquots of suspended cells were diluted into Hepes MEM containing the tonicity and/or agents to be evaluated. Mean cell volumes of each suspension aliquot were followed over time, starting at 1 minute after addition of cells to the assay media. Cell suspensions were maintained at 37° C. throughout the assay period. Absolute volumes (picoliters/cell) were calculated from distribution curves of cell diameter, using a standard curve generated by polystyrene latex beads of known diameter.
In order to determine whether the Na—K—Cl cotransporter of TM cells may play a role in restoration of intracellular volume following hypertonicity-induced cell shrinkage, we evaluated the effect of hypertonicity on TM cell volume and Na^+—K^+—2Cl^− cotransport activity. […] The intracellular volume of the cells then increased over a slower time course, with volume recovering to approximately 84% by 33 minutes as shown in FIG. 3A.

Which K influx ([1]; 10 μM bumetanide, total K uptake without drug 49±1.47) does the source give for `CCCCNc1cc(C(=O)O)cc(S(N)(=O)=O)c1Oc1ccccc1` [bumetanide] here?
The K influx was 22.09±1.14 μmol K/gm protein/min.

And the “BUMETANIDE-SENSITIVE K INFLUX” value ([1]; with Na/K pump inhibition (ouabain))?
The value was 20.1 μmol K/gm protein/min.

And the “BUMETANIDE-SENSITIVE K INFLUX” value ([1]; without Na/K pump inhibition)?
Its value is 26.9 μmol K/gm protein/min.

What about the “monolayer permeability to sucrose” value [2] of the same molecule?
Its value is “increased”.

What about the “bumetanide-sensitive net K uptake” value ([3]; Cl omitted from the incubation medium, n=8) of the same molecule?
Its value is −2.62±2.82 μmol K/gm protein/min.

And the “bumetanide-sensitive net K uptake” value ([3]; Na omitted from the incubation medium, n=8)?
The value was 1.71±2.49 μmol K/gm protein/min.

And the “bumetanide-sensitive net K uptake” value ([3]; steady state, 10 μM bumetanide)?
Its value is 7.78=1.98 μmol K/gm protein/min.

And the intracellular volume ([4]; 30 minute exposure, bumetanide 10 μM, ethacrynic acid 1 mM, versus Hepes MEM control)?
Its intracellular volume is “significant reduction”.

What about the “volume recovery after hypertonicity-induced cell shrinkage” value ([4]; hypertonic (400 mOsm) medium containing bumetanide) of the same molecule?
Its value is “greatly attenuated”.
